For orientation: Ki means the equilibrium dissociation constant of an inhibitor or competing ligand from its target.

The target in one assay is T1, A1AR (Homo sapiens, UniProt P30542).
T1 construct: expressed in transfected cells
T1 sequence (P30542 1-326): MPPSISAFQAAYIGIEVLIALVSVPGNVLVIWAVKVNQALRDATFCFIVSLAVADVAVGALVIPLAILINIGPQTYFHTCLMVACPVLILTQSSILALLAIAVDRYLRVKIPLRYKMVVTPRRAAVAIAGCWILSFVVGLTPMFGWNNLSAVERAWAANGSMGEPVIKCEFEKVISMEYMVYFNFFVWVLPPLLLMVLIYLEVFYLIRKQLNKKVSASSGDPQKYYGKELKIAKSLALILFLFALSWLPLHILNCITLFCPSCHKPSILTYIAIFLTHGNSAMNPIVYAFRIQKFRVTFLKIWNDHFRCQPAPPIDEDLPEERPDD
The assay is described as follows: Competition radioligand binding, hA1AR ([3H]DPCPX). Particulars: [3H]DPCPX 0.5 nM; for Ki: HEK-293 membranes, 1 h 25 °C, mean ± SEM, read-out: Affinity, Ki, A1. The procedure: (§1) The affinity of the amine congeners and other antagonists was measured using standard radioligand binding assays for hA1, A2A and A3ARs (Table 1).[1],[13],[14],[22] Membranes of human embryonic kidney (HEK)293 cells expressing the AR of interest were used in the assay. Primary amine congeners 6a–6d containing spacers of 2–5 methylenes were similar in terms of hA2AAR affinity (Ki 6–9 nM), with the butylamino congener 6c displaying the highest A2AAR selectivity in the series. The affinity of this compound for the hA3AR was determined to be 6.0 μM, with only slightly higher hA1AR affinity. Homologation to 6 methylenes in compound 6e lowered A2AAR affinity. […] No dependence of the affinity on the chain length was evident when comparing AlexaFluor647 conjugates 9 and 10. […]
(§2) Radioligand binding assays: Cell membranes were prepared as reported.1
(§3) Binding assays were carried out using standard radioligands and membrane preparations from HEK-293 cells stably expressing the human (h) A1, A2A or A3ARs or mouse (m) A1, A2A or A3ARs. The radioligands used were: A1AR, [3H]8-cyclopentyl-1,3-dipropylxanthine 14; A2AAR, [3H]2; A3AR, [125I]N6-(4-amino-3-iodobenzyl)adenosine-5′-N-methyluronamide 16. The radioligand for archival A2AAR affinity data presented in Table 1 was [3H]2-[p-(2-carboxyethyl)phenyl-ethylamino]-5′-N-ethylcarboxamidoadenosine 15. Nonspecific binding was determined using 10 µM 8-[4-[[[[(2-aminoethyl)amino]carbonyl]methyl]oxy]phenyl]-1,3-dipropylxanthine 17 (A1AR and A2AAR) or 10 µM adenosine-5′-N-ethyluronamide 18 (A3AR). HEK-293 cells expressing recombinant mA1, A2A, or A3AR […]
(§4) Protein was determined as reported.2 In all the binding experiments, IC50 values and Ki values were calculated using GraphPad Prism software (San Diego, CA). Values are expressed as mean±SEM. […]
(§5) Med. Chem. Comm., 2015, 6:555-563.
(§6) 2. Bradford, M. M. A rapid and sensitive method for the quantitation of microgram quantities of protein utilizing the principle of protein -dye binding. Anal. Biochem. 1976, 72, 248-254.

A further assay has as its target T2, A3AR (Homo sapiens, UniProt P0DMS8).
T2 construct: expressed in transfected cells
T2 sequence (P0DMS8 1-318): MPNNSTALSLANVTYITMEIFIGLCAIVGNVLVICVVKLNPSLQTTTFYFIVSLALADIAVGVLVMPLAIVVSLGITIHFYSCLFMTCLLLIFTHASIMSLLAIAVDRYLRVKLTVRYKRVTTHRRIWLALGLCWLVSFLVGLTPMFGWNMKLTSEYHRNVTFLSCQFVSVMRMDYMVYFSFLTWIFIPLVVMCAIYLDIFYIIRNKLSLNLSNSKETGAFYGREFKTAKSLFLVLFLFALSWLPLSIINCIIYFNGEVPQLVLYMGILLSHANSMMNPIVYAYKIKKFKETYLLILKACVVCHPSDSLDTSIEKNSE
Put plainly: Competition radioligand binding, hA3AR ([125I]I-AB-MECA). Particulars: [125I]I-AB-MECA 0.2 nM; for inhibition at 10 µM: percent inhibition at 10 μM, read-out: % inhib, A3. The procedure:
as §1, §2, §3, §4, §5, §6

Another assay has as its target T3, mA1AR (Mus musculus, UniProt Q60612).
T3 construct: expressed in transfected cells; host or cells: HEK-293
T3 sequence (Q60612 1-326): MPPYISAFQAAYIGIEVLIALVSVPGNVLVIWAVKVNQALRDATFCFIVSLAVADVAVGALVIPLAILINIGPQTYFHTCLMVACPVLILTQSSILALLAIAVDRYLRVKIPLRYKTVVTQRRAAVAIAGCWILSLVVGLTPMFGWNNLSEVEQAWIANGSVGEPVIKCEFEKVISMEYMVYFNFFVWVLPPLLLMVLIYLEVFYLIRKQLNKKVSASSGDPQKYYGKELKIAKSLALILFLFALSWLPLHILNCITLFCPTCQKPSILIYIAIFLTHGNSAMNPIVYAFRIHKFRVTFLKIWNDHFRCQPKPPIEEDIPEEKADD
Put plainly: Competition radioligand binding, mA1AR. Particulars: for inhibition at 10 µM: mouse A1AR, percent inhibition at 10 μM. The procedure: as §1, §2, §3, §4, §5, §6

The target of the next assay is T4, mA2AAR (Mus musculus, UniProt Q60613).
T4 construct: expressed in transfected cells; host or cells: HEK-293
T4 sequence (Q60613 whole entry): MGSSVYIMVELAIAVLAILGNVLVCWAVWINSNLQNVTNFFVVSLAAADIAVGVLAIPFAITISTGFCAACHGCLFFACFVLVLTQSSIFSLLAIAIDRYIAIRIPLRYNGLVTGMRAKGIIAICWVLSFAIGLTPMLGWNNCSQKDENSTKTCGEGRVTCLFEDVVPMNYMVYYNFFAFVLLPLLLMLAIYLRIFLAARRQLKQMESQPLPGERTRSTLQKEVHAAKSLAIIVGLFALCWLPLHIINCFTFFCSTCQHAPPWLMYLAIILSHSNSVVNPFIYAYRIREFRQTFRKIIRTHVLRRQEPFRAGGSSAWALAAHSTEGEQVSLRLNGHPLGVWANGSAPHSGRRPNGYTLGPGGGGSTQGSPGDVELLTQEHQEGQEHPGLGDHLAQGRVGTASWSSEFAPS
The assay is described as follows: Competition radioligand binding, mA2AAR. The settings on record: mouse A2AAR, HEK-293 membranes, mean ± SEM; read-out: Affinity, Ki, A2A (m) (converted). The procedure: The affinity of the amine congeners and other antagonists was measured using standard radioligand binding assays for hA1, A2A and A3ARs (Table 1).[1],[13],[14],[22] Membranes of human embryonic kidney (HEK)293 cells expressing the AR of interest were used in the assay. Primary amine congeners 6a–6d containing spacers of 2–5 methylenes were similar in terms of hA2AAR affinity (Ki 6–9 nM), with the butylamino congener 6c displaying the highest A2AAR selectivity in the series. The affinity of this compound for the hA3AR was determined to be 6.0 μM, with only slightly higher hA1AR affinity. Homologation to 6 methylenes in compound 6e lowered A2AAR affinity. […] No dependence of the affinity on the chain length was evident when comparing AlexaFluor647 conjugates 9 and 10.
Cell culture for membrane binding assays and flow cytometry: HEK-293 cells stably expressing the A2AAR were grown in Dulbecco’s Modified Eagle’s Medium (DMEM) with 10% FBS, 100 units/ml penicillin, […] streptomycin, 2 mM L-glutamine and 0.500 mg/mL G418 Sulfate (Geneticin). […]
as §2, §3, §4, §5, §6

A further assay concerns the target T5, mA3AR (Mus musculus, UniProt Q61618).
T5 construct: expressed in transfected cells; host or cells: HEK-293
T5 sequence (Q61618 1-319): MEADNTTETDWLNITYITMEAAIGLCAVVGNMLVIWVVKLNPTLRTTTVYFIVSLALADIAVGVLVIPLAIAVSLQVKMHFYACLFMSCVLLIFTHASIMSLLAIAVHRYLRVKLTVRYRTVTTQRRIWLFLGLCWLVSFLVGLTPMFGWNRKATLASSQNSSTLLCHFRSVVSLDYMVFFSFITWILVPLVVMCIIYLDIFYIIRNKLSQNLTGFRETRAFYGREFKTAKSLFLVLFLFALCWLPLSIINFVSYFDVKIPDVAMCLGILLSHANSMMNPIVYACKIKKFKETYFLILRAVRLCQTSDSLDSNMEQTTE
Put plainly: Competition radioligand binding, mA3AR. Particulars: for inhibition at 10 µM: mouse A3AR, percent inhibition at 10 μM, read-out: % inhib, A3 (m) (converted). The procedure:
as §1, §2, §3, §4, §5, §6

Where “and” joins values, the source holds several entries; their conditions need not be identical. Identical values can stand only once.

`Nc1nc2c(cnn2CCCc2ccc(OCC(=O)NCCCCNC(=O)CCCCCNC(=O)COc3ccc(/C=C/C4=[N+]5C(=Cc6ccc(-c7cccs7)n6[B-]5(F)F)C=C4)cc3)cc2)c2nc(-c3ccco3)nn12` [compound 11]: the inhibition at 10 µM is 40% at A1AR (percent inhibition at 10 μM), 33% at A3AR, 0% on mA1AR and 2% on mA3AR. Besides, the Ki on mA2AAR is 0.0021 µM and 0.00209 µM.
Consider `CCN(CC)CC.CCN(CC)CC.N=c1ccc2c(-c3ccc(C(=O)NCCCCNC(=O)COc4ccc(CCCn5ncc6c5nc(N)n5nc(-c7ccco7)nc65)cc4)cc3C(=O)O)c3ccc(N)c(S(=O)(=O)O)c3oc-2c1S(=O)(=O)O` [compound 12], for which the inhibition constant Ki on A1AR was 1.68 ± 0.47 µM; at mA2AAR, 0.585 µM. Besides, the inhibition at 10 µM on A3AR was 32%; on mA1AR, 0%; on mA3AR, 5%.
On to `N.Nc1nc2c(cnn2CCCc2ccc(OCc3ccc(S(=O)(=O)O)cc3)cc2)c2nc(-c3ccco3)nn12` [compound 13], for which the Ki on A1AR is 4.19 ± 0.75 µM; on A3AR (HEK-293 membranes, 1 h 25 °C, mean ± SEM, read-out: Affinity, Ki, A3), 2.66 ± 1.25 µM; on mA2AAR, 0.0641 µM. For the same compound, the inhibition at 10 µM at mA1AR is 21%; on mA3AR, 4%. On mA1AR (result in words), the “binding to the mA1AR” value is “insignificant”. The “binding to the mA3AR” value on mA3AR (result in words) was “insignificant”.

These data come from article PMC5729930, “Bitopic fluorescent antagonists of the A2A adenosine receptor based on pyrazolo[4,3-e][1,2,4]triazolo[1,5-c]pyrimidin-5-amine functionalized congeners” (MedChemComm, 2017).
